The values below are quoted from earlier work in patent US20060051406A1, “Formulation of insoluble small molecule therapeutics in lipid-based carriers” (priority 2004, published 2006).

For the data set the following is noted: lipid transition temperature (gel to liquid crystalline phase).
As to `CCCCCCCCCCCCCCCC(=O)OC[C@H](COP(=O)([O-])OCC[N+](C)(C)C)OC(=O)CCCCCCCCCCCCCCC` [Dipalmitoylphosphatidylcholine], the Tm is 41 °C.
For the compound `CCCCCCCCCCCCCCCCCC(=O)OC[C@H](COP(=O)([O-])OCC[N+](C)(C)C)OC(=O)CCCCCCCCCCCCCCCCC` [Distearoylphosphatidylcholine], the Tm is 55 °C.
In the case of `CCCCCCCCCCCCCC(=O)OC[C@H](COP(=O)([O-])OCC[N+](C)(C)C)OC(=O)CCCCCCCCCCCCC` [Dimyristoylphosphatidylcholine], the Tm was 23 °C.
Turning to `CCCCCCCC/C=C\CCCCCCCC(=O)OC[C@H](COP(=O)([O-])OCC[N+](C)(C)C)OC(=O)CCCCCCC/C=C\CCCCCCCC` [Dioleoylphosphatidylcholine, 1,2-dioleoyl-sn-glycero-3-phosphocholine], the Tm was −22 °C.
